One compound from US20110129455A1, “INHIBITORS OF AKT ACTIVITY” (priority 2008, published 2011) can be followed below.

For this assay, the target named is T1, full length AKT1 (Homo sapiens, UniProt P31749).
T1 construct: Full-length human AKT1 gene was amplified by PCR; His tag (from vector pFastBacHTb; N-terminal position is own knowledge of the vector) (N); made in house; host or cells: baculovirus; Sf9 / T. ni insect cells
Put plainly: Full-length AKT enzyme assay (substrate phosphorylation, SPA). The format is biochemical. To be noted: in at least one experimental run; pIC50 = -log(IC50), IC50 in molar units; 4 uM ATP, 10 nM activated AKT enzyme; read-out: pIC50 against full length AKT1 (converted). An excerpt: Cloning of Full-Length Human (FL) AKT1:
Full-length human AKT1 gene was amplified by PCR from a plasmid containing myristylated-AKT1-ER (gift from Robert T. Abraham, Duke University under MTA, described in Klippel et al. in Molecular and Cellular Biology 1998 Volume 18 p. 5699) using the 5′ primer: SEQ. ID NO: 2
5′ […] 3′ and the 3′ primer: SEQ. ID NO: 3 […] 3′. The 5′ primer included a BamHl site and the 3′primer included an Xhol site for cloning purposes. The resultant PCR product was subcloned in pcDNA3 as a BamHl/Xhol fragment. A mutation in the sequence (TGC) coding for a Cysteine^25 was converted to the wild-type AKT1 sequence (CGC) coding for an Arginine^25 by site-directed mutagenesis using the QuikChange® Site Directed Mutagenesis Kit (Stratagene). The AKT1 mutagenic primer: SEQ. ID NO: 4 5′ […] and selection primer: SEQ. […] For expression/purification purposes, AKT1 was isolated as a BamHl/Xhol fragment and cloned into the BamHl/Xhol sites of pFastbacHTb (Invitrogen).
Expression was done using the BAC-to-BAC Baculovirus Expression System from Invitrogen (catalog #10359-016). […]
Compounds of the present invention were tested for AKT 1, 2, and 3 protein serine kinase inhibitory activity in substrate phosphorylation assays. […] Substrate phosphorylation was detected by the following procedure. […]

T1 sequence (P31749 whole entry): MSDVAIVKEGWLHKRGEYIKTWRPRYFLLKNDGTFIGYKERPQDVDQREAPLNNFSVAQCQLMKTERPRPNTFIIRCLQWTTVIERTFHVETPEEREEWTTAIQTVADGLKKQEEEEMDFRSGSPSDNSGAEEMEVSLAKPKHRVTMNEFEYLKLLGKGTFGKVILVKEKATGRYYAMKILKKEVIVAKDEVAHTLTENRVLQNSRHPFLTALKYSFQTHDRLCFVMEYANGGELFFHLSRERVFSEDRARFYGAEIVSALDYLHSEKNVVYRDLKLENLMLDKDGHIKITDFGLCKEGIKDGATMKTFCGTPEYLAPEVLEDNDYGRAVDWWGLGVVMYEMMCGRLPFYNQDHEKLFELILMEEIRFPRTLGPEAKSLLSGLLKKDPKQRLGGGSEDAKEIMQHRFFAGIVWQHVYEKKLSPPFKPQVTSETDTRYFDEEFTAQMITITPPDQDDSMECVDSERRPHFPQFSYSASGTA

In the case of `Cn1nccc1-n1cc(C(=O)N[C@H](CN)Cc2cccc(F)c2)cc1Cl` [Example 2, N-{(1S)-2-amino-1-[(3-fluorophenyl)methyl]ethyl}-5-chloro-1-(1-methyl-1H-pyrazol-5-yl)-1H-pyrrole-3-carboxamide], the IC50 was 6.31 nM.
